According to paper PMC6119295 (International Journal of Neuropsychopharmacology, 2018):

Assays:
rodents = conditions: ref Valenza et al., 2017; cited from earlier work
C57BL6 mice [1] = assay: Morphine-induced analgesia in a hot plate assay; type: in vivo, mouse; conditions: dose used in prolactin/rotarod experiments; data not shown
C57BL6 mice [2] = conditions: mouse, in vivo
dopamine D2 receptor = conditions: ref Spetea et al., 2012; cited from earlier work
[3] = up to 10 mg/kg; ref Erli et al. 2017; cited from earlier work
C57BL6 mice [4] = conditions: mouse, in vivo; remark: listed apart in the source
MOR = MOR (Rattus norvegicus, UniProt P33535); assay: Opioid receptor binding, MOR
MOR, sequence (P33535 whole entry): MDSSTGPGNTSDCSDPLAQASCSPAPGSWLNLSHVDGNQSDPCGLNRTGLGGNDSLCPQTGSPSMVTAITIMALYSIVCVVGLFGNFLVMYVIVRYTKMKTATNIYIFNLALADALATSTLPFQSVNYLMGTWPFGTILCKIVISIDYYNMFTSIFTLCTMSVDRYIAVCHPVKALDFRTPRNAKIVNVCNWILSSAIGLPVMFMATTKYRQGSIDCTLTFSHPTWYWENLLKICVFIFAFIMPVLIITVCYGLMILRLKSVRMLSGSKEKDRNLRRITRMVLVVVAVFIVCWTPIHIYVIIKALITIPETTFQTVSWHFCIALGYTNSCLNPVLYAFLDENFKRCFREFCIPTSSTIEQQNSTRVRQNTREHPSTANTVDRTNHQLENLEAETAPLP

DOR = DOR (Homo sapiens, UniProt P41143); assay: Opioid receptor binding, DOR
DOR, sequence (P41143 whole entry): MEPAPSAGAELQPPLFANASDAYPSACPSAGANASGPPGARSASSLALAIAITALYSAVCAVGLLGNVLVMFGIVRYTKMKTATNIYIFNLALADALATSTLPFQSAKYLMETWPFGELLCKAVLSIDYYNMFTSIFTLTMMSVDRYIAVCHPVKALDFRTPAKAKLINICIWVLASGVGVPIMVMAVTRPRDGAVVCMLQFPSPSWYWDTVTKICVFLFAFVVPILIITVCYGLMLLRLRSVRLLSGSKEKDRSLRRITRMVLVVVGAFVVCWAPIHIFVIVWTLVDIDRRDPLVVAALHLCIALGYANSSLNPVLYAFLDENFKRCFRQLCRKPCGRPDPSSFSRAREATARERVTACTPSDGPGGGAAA

mice = conditions: cited from earlier work
[5] = ref White et al., 2015, cited from earlier work
caudate putamen = conditions: 3.2 mg/kg, ref Zhang et al., 2005, cited from earlier work

NC(=O)c1ccc(Oc2ccc(CN3CCC[C@H]3c3cccc(F)c3)cc2)c(F)c1 [LY2444296, (S)-3-fluoro-4-(4-((2-(3-fluorophenyl)pyrrolidin-1-yl)methyl)phenoxy)benzamide]
Duration of action (short-acting) (rodents): < 48 h | Effect on morphine-induced analgesia in hot plate assay (C57BL6 mice [1]): does not inhibit morphine-induced analgesia | Blockade of U50,488-stimulated prolactin release (C57BL6 mice [2]): blocks the effects | Effect of antagonist alone on serum prolactin (C57BL6 mice [2]): no effect on prolactin

Oc1cccc(CCN(CCc2ccccc2)CC2CCC2)c1 [MCBPHA, N-methylcyclobutyl-N-phenylethyl-N-3-hydroxyphenylethyl-amine]
Affinity and agonism at the dopamine D2 receptor (dopamine D2 receptor): low affinity and no agonism | Locomotor defects in the rotarod assay [3]: neither of these compounds caused locomotor defects | Rotarod incoordination after LY2444296 pretreatment (C57BL6 mice [4]): blocked | Ki (MOR): 270 nM | Ki (DOR): 3000 nM | Effect on serum prolactin after LY2444296 pretreatment (C57BL6 mice [2]): blocked the effect | Potency in peripheral analgesia (acetic acid writhing) (mice; mice, ref Spetea et al., 2012): equally potent as the well-characterized KOR agonist U50,488 | Efficacy in an analgesia assay in mice (mice; ref Spetea et al. 2012, Erli et al. 2017): efficacy

COC(=O)[C@@H]1C[C@H](OC(=O)CSC#N)C(=O)[C@H]2[C@@]1(C)CC[C@H]1C(=O)O[C@H](c3ccoc3)C[C@]21C [RB-64]
Effect on the rotarod [5]: did not have an effect on the rotarod

COC(=O)[C@@H]1C[C@H](OC(C)=O)C(=O)[C@H]2[C@@]1(C)CC[C@H]1C(=O)O[C@H](c3ccoc3)C[C@]21C [salvinorin A]
Duration of decrease of extracellular dopamine (caudate putamen; after administration): at least 3 hours | Decrease of extracellular dopamine in the caudate putamen (caudate putamen; systemic): over 50% | Time after injection at which rotarod incoordination begins returning to normal ([5]; 3 mg/kg): ≤ 30 min
